In one data set the target is T1, OTR (Mus musculus, UniProt P97926).
T1 construct: from tissue; host or cells: acute mouse brain slices, PV interneurons of hippocampal CA1 and CA2 (PvalbCre; Ai14 mice)
T1 sequence (P97926 1-388): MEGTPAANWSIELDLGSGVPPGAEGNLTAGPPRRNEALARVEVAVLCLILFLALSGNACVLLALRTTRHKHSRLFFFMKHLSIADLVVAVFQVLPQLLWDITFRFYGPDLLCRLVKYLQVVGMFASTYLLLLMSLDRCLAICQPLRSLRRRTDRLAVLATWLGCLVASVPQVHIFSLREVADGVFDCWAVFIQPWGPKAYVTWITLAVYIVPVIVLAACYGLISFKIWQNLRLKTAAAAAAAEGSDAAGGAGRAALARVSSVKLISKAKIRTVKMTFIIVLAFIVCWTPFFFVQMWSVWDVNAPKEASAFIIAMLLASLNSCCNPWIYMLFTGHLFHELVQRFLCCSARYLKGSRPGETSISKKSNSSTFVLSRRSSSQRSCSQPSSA
As to the kind of experiment: Whole-cell recording of membrane currents, PV interneurons of hippocampal CA1 and CA2, acute brain slices. It is filed as cell-based. From the text:
(§1) Photoactivatable neuropeptides are powerful tools that can drive studies into the mechanisms of endogenous receptor signaling in acute brain slices.[3],[8],[40] To determine if NPP-caged peptides are compatible with such experiments, we established electrophysiological assays for measuring the activation of GRPR, OTR, NK1R, and CCK2R in acute brain slices taken from transgenic mice. These assays involved whole cell recordings of membrane currents from genetically defined neurons located in different brain regions where endogenous receptor activation produces inward, excitatory currents that facilitate action potential firing. Neuropeptide receptor-expressing cells were identified for fluorescence-guided, targeted electrophysiological recordings using transgenic mice that contain transgenes encoding Cre-recombinase under a promotor that is specific to the cell of interest, as well as a Cre-dependent tdTomato fluorescent protein via the Ai14 (Rosa26-lsl-tdTomato) reporter strain. […]
(§2) (A) Average inward currents over time after bath application of GRP(14-27)-NPP (3 μM, n = 5 cells from 4 mice) or GRP(14-27) (300 nM, n = 5 from 4 mice), recorded from fluorescently labeled VIP interneurons in layer 1 of the motor cortex. Data are expressed as the mean ± SEM. […] Data are expressed as the mean ± SEM. […] Data are expressed as the mean ± SEM. […] Data are expressed as the mean ± SEM. […]

The target of data set [1] is T2, gastrin-releasing peptide receptor (GRPR) (Mus musculus, UniProt P21729).
T2 construct: host or cells: HEK293T
T2 sequence (P21729 whole entry): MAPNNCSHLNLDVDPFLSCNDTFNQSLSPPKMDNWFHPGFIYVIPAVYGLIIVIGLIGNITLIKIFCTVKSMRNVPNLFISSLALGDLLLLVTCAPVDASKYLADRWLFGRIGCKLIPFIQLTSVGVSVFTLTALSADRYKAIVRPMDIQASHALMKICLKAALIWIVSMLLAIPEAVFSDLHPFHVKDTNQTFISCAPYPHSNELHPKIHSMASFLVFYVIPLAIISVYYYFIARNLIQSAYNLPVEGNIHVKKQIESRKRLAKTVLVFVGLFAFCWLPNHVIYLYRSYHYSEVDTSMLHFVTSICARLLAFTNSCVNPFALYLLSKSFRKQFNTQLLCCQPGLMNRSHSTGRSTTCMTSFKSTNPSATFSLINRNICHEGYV
As to the kind of experiment: GloSensor cAMP assay of GPCR activation, GRPR. It is filed as cell-based. The note with it: for EC50: GloSensor cAMP, n = 10 wells per data point. An excerpt: To determine the effectiveness of the C-TEx caging strategy at attenuating peptide activity, we conducted a live-cell functional assay of GPCR activation in HEK293T cells transfected to express the primary receptors for each neuropeptide. The GloSensor assay reports changes in cyclic adenosine monophosphate (cAMP) signaling as a function of GPCR activation. […] To adapt this cAMP assay to report the activation of Gq-coupled GPCRs, we coexpressed a chimeric Gαs/Gαq protein (sq5) that allows Gq-coupled GPCRs to strongly engage the Gs pathway to elevate cAMP via activation of adenylyl cyclase.[39]
Figure 3 In vitro characterization of NPP-caged neuropeptides using a functional assay of G protein signaling. (A) Dose–response curves at the gastrin-releasing peptide receptor (GRPR) using a GloSensor assay of cAMP signaling in HEK293T cells (n = 10 wells per data point). Data were normalized to the maximal response to GRP(14-27) (300 nM) and are expressed as the mean ± SEM.
Reagent type (species) Designation Source or Identifiers
GRPR plasmid mGRPR Genscript Clone ID OMu14220D
OTR plasmid hOXR cdna.org Cat # OXTR000000
CCK1R hCCK1R cdna.org Cat # CCKAR00000
CCK2R plasmid hCCK2R cdna.org Cat # CCKBR00000
NK1R plasmid hNK1R cdna.org Cat # TACR100000
HEK293T cells ATCC.org Cat # CRL-3216
GloSensor plasmid pGloSensor - Promega Cat # E2301
GloSensor reagent cAMP Reagent Promega Product # E1291
VIP-IRES-CRE, C57Bl/6J The Jackson background (M. musculus, VipCre Laboratory Cat # 010908
Ai14, C57Bl/6J Rosa26-lsl- The Jackson background (M. musculus, tdTomato (Ai14) Laboratory Cat # 007914 […]
C57Bl/6J background (M. ChatCre The Jackson Cat # 006410 musculus, male and Laboratory
Pvalb-IRES-Cre, C57Bl/6J The Jackson background (M. musculus, PvalbCre Cat # 017320 male and female) Laboratory […]
parent peptide. […] The solutions were illuminated in 15 sec periods, after which samples were removed and analyzed by LC-MS using a linear gradient (water/MeCN 5%/95% → MeCN 100%, 0-8 min with 0.1% formic acid) and a C-18 column (4.6 × 50 mm, 1.8 μm) (Agilent). Each compound was assessed in triplicate. […]

For data set [2] the following is noted: cited from earlier work. From the text: With the target NPP-caged peptides in hand, we examined their photochemical reactivity in cell-compatible aqueous solution (phosphate-buffered saline, pH 7.2). […] Collectively, they were consumed 25–40 ...
Another data set deals with T3, GRPR (Mus musculus, UniProt P21729).
T3 construct: from tissue; host or cells: acute mouse brain slices, VIP interneurons of primary motor cortex (VipCre; Ai14 mice)
T3 sequence (P21729 whole entry): as above
As to the kind of experiment: Whole-cell recording of membrane currents, VIP interneurons of motor cortex, acute brain slices. In kind it is cell-based.
Source text: as §1, §2

For data set [3], the target named is gastrin-releasing peptide receptor (UniProt P30550).
Sequence of gastrin-releasing peptide receptor (P30550 whole entry): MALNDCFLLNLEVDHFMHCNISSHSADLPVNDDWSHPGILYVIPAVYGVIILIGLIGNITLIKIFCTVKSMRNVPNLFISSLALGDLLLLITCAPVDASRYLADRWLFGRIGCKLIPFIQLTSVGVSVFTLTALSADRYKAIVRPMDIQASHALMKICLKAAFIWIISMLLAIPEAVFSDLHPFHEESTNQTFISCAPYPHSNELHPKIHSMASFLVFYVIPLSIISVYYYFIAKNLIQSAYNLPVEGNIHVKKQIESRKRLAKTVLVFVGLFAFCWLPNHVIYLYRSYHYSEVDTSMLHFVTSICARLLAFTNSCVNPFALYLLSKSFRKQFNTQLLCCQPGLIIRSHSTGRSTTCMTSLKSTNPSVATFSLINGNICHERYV
Data set [4] deals with its receptors (GRP receptors). The note with it: cited from earlier work. From the text:
This motif is associated with immature neuropeptides that are likely not intended for receptor binding. […] We therefore reasoned that inclusion of the entire C-terminal amidation sequence might be particularly effective at reducing binding affinity if incorporated into C-terminally caged peptides, especially due to the presence of bulky, positively charged amino acids found in the dibasic motif. To mimic the proneuropept ...

Starred links: 1 amine or outer side, 2 acyl side, 3 side chain; linkers in the order of their positions; H or OH if unused. Non-standard residues stand in square brackets, D forms with d. Residues, ends and D or L forms follow the SMILES beside them. No end group written: not given here. X1 = COc1cc(C(CC(=O)[*:2])N[*:1])c([N+](=O)[O-])cc1OC; DMNBA = dimethoxynitrobenzyl beta-alanine, racemic

Consider `CC[C@H](C)[C@@H]1NC(=O)[C@H](Cc2ccc(O)cc2)NC(=O)[C@@H](N)CSSC[C@@H](C(=O)N2CCC[C@H]2C(=O)N[C@@H](CC(C)C)C(=O)NCC(N)=O)NC(=O)[C@H](CC(N)=O)NC(=O)[C@H](CCC(N)=O)NC1=O` [OT, Oxytocin], for which the “peak current amplitude, bath application” value on OTR (300 nM, n = 7 from 4 mice, held at -70 mV, mean ± SEM) is −35.8 ± 5.7. In turn, `COc1cc(C(CC(=O)N[C@@H](CCCNC(=N)N)C(=O)N[C@@H](CCCCN)C(=O)N2CCC[C@H]2C(=O)N[C@@H](CCC(=O)O)C(=O)N[C@@H](CCCCN)C(=O)O)NC(=O)[C@H](CCSC)NC(=O)[C@H](CC(C)C)NC(=O)[C@H](Cc2c[nH]cn2)NC(=O)CNC(=O)[C@@H](NC(=O)[C@H](C)NC(=O)[C@H](Cc2c[nH]c3ccccc23)NC(=O)[C@H](Cc2c[nH]cn2)NC(=O)[C@H](CC(N)=O)NC(=O)CNC(=O)[C@H](CCCNC(=N)N)NC(=O)[C@@H]2CCCN2C(=O)[C@H](Cc2ccc(O)cc2)NC(=O)[C@@H](N)CCSC)C(C)C)c([N+](=O)[O-])cc1OC` (some centres unmarked) [GRP(14-27)-NPP] (H-MYPRGNHWAVGHLM[X1]RKPEK-OH) had an EC50 in data set [1] (HEK293T cells coexpressing sq5, no light) of 6.1 µM. Besides, the “reduction of EC50 (potency) at the GRPR by NPP-caging” value in data set [1] (caged versus parent peptide) was ~10,000 fold.

With `COc1ccc([N+](=O)[O-])c2c1CCN2C(=O)CC[C@H](N)C(=O)O` [MNI-glutamate, 4-Methoxy-7-nitroindolinyl-caged-L-glutamate], the quantum yield in data set [2] is 0.065. In the case of `CSCC[C@H](NC(=O)[C@H](CC(C)C)NC(=O)[C@H](Cc1c[nH]cn1)NC(=O)CNC(=O)[C@@H](NC(=O)[C@H](C)NC(=O)[C@H](Cc1c[nH]c2ccccc12)NC(=O)[C@H](Cc1c[nH]cn1)NC(=O)[C@H](CC(N)=O)NC(=O)CNC(=O)[C@H](CCCNC(=N)N)NC(=O)[C@@H]1CCCN1C(=O)[C@H](Cc1ccc(O)cc1)NC(=O)[C@@H](N)CCSC)C(C)C)C(N)=O` [GRP(14-27), Gastrin-releasing peptide (14-27)], at GRPR (300 nM, n = 5 cells from 4 mice, held at −55 mV, mean ± SEM), the “peak current amplitude, bath application” value is on record as −62.8 ± 12.8. In data set [1] (HEK293T cells coexpressing chimeric Gαs/Gαq (sq5), normalized to GRP(14-27) 300 nM), this molecule gave an EC50 of 0.0006 µM.

Consider “(d(CH2)5^1,Tyr(Me)^2,Thr^4,Orn^8,des-Gly-NH2^9)-Vasotocin [OTA]”, for which the “block of light-evoked OT-NPP current” value on OTR (antagonist 1 μM) was “blocked”. Regarding “3-Phenylpropanoyl-His-Trp-Ala-Val-D-Ala-His-D-Pro-CH2NH-Phe-NH2 [BW1023U90]”, the “block of light-evoked GRP(14-27)-NPP current” value at GRPR (antagonist 1 μM) is recorded as “completely blocked”. For MYPRGNHWAVGHLM[DMNBA]RKPEK (also: DMNBA racemic, diastereomers not resolved) [GRP(14-27)-NPP], the EC50 of receptor activation, GloSensor cAMP assay in HEK293T cells co-expressing the chimeric Gαs/Gαq protein sq5 in data set [3] came to 6.1 µM.

B1: progastrin-releasing peptide: prohormone of gastrin-releasing peptide, literature finding (protein, UniProt P07492 24-148, looked up)
pro-form: VPLPAGGGTVLTKMYPRGNHWAVGHLMGKKSTGESSSVSERGSLKQQLREYIRWEEAARNLLGLIEAKENRNHQPPQPKALGNQQPSWDSEDSSNFKDVGSKGKVGRLSAPGSQREGRNPQLNQQ
modifications: pro-form
notes: prohormone of gastrin-releasing peptide, literature finding
For B1, in data set [4], the receptor binding result is “does not bind”.

Regarding MYPRGNHWAVGHLM-NH2 [gastrin-releasing peptide (14-27)], in data set [3], the EC50 of receptor activation, GloSensor cAMP assay in HEK293T cells co-expressing the chimeric Gαs/Gαq protein sq5 came to 0.0006 µM.
